From ChEMBL document CHEMBL1201862, “PubChem BioAssay data set” (2004)
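Values below derive from 48-hour exposures of cells grown in 96-well plates, with endpoints linearly interpolated between the two concentrations bracketing the appropriate inhibition level. GI50 marks 50% less growth.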 Calls of active or inactive are those of the source. Cut-off read from the data, not from the text of the source: active = GI50 up to about 1.1 µM and inactive = higher.

Key:
Assay in all cases: inhibition of tumour cell growth, NCI panel, 48 h
786-0 = test system: 786-0
CCRF-CEM = test system: CCRF-CEM
DU-145 = test system: DU-145
HCT-15 = test system: HCT-15
HOP-92 = test system: HOP-92
HT-29 = test system: HT-29
LOX IMVI = test system: LOX IMVI
MCF7 = test system: MCF7
MDA-MB-231 = test system: MDA-MB-231
NCI-H460 = test system: NCI-H460
NCI-H522 = test system: NCI-H522
NCI/ADR-RES = test system: NCI/ADR-RES
SF-268 = test system: SF-268
SF-295 = test system: SF-295
SK-MEL-2 = test system: SK-MEL-2
SK-MEL-5 = test system: SK-MEL-5
SK-OV-3 = test system: SK-OV-3
SN12C = test system: SN12C
SNB-75 = test system: SNB-75
SR = test system: SR

Row | SMILES | GI50 (786-0) | GI50 (CCRF-CEM) | GI50 (DU-145) | GI50 (HCT-15) | GI50 (HOP-92) | GI50 (HT-29) | GI50 (LOX IMVI) | GI50 (MCF7) | GI50 (MDA-MB-231) | GI50 (NCI-H460) | GI50 (NCI-H522) | GI50 (NCI/ADR-RES) | GI50 (SF-268) | GI50 (SF-295) | GI50 (SK-MEL-2) | GI50 (SK-MEL-5) | GI50 (SK-OV-3) | GI50 (SN12C) | GI50 (SNB-75) | GI50 (SR)
1 | Nc1nc(=O)c(/N=N/c2ccccc2)c(C(=O)O)[nH]1 | 71.6 µM (inactive) | 40.1 µM (inactive) | 98.6 µM (inactive) | 75.2 µM | > 100 µM (inactive) | 45.5 µM (inactive) | 74.6 µM (inactive) | 79.3 µM (inactive) | > 100 µM (inactive) | 45.7 µM (inactive) | 52.7 µM (inactive) | > 100 µM (inactive) | 72.3 µM (inactive) | 56.6 µM (inactive) | > 100 µM (inactive) | 93.8 µM (inactive) | > 100 µM (inactive) | 96.6 µM (inactive) | > 100 µM (inactive) | 35.3 µM (inactive)
2 | [N-]=[N+]=NC1C(O)C(CO)OC1n1ccc(N)nc1=O (stereo not given) | 118 µM (inactive) | 0.444 µM (active) | 212 µM (inactive) | 56.2 µM | 403 µM (inactive) | 204 µM (inactive) | 232 µM (inactive) | 24 µM (inactive) | 195 µM (inactive) | 235 µM (inactive) | 37.6 µM (inactive) | 200 µM (inactive) | 191 µM (inactive) | 530 µM (inactive) | 76.7 µM (inactive) | > 625 µM (inactive) | > 625 µM (inactive) | 227 µM (inactive) | 430 µM (inactive) | 28.5 µM (inactive)
3 | COc1c(OC(C)=O)c(OC(C)=O)cc2c1-c1ccc(OC)c(=O)cc1C(NC(C)=O)CC2 (stereo not given) | 0.027 µM (active) | 0.013 µM (active) | 0.0525 µM (active) | 0.465 µM | 0.0173 µM (active) | 0.0198 µM (active) | < 0.0147 µM (active) | < 0.01 µM (active) | 0.0129 µM (active) | 0.0451 µM (active) | 0.0114 µM (active) | 1.6 µM (inactive) | 0.0218 µM (active) | 0.0424 µM (active) | 0.0186 µM (active) | 0.0116 µM (active) | 2.29 µM (inactive) | 0.0348 µM (active) | < 0.01 µM (active) | 0.0128 µM (active)
4 | Cc1c2ncccc2c(C)c2c1[nH]c1ccc(O)cc12 | 2.91 µM (inactive) | 1.33 µM (inactive) | 7.23 µM (inactive) | 3.39 µM | 4.54 µM (inactive) | 6.87 µM (inactive) | 1.71 µM (inactive) | 2.65 µM (inactive) | 4.93 µM (inactive) | 1.31 µM (inactive) | 6.22 µM (inactive) | 5.27 µM (inactive) | 4.94 µM (inactive) | 2.48 µM (inactive) | 18.5 µM (inactive) | 7.24 µM (inactive) | 3.38 µM (inactive) | 2.24 µM (inactive) | 4.07 µM (inactive) | 1.74 µM (inactive)
5 | C[C@H]1[C@H]2[C@H](C[C@@]3(C)C4=CC[C@H]5C(C)(C)[C@@H](OC6OCC(O)C(O)C6O)CC[C@@]56C[C@@]46CC[C@]23C)O[C@@]2(O)[C@@H]1OC(C)(C)[C@H]2O (stereo not given in full) | 1.06 µM (active) | 0.791 µM (active) | 1.02 µM (active) | 1.05 µM | 1.09 µM (active) | 2.61 µM (inactive) | 1.48 µM (inactive) | 0.867 µM (active) | 1.81 µM (inactive) | 2.12 µM (inactive) | 0.605 µM (active) | 2.67 µM (inactive) | 0.914 µM (active) | 0.429 µM (active) | 5.53 µM (inactive) | 1.66 µM (inactive) | 1.74 µM (inactive) | 1.06 µM (active) | 1.62 µM (inactive) | 1.54 µM (inactive)
6 | COc1ccc2c(c1)CCc1c-2n(CCN2CCCCC2)c2ccc(OC)cc12 | > 100 µM (inactive) | > 100 µM (inactive) | > 100 µM (inactive) | > 100 µM | > 10 µM (inactive) | 9.12 µM (inactive) | > 100 µM (inactive) | > 100 µM (inactive) | > 100 µM (inactive) | > 100 µM (inactive) | 61.5 µM (inactive) | 28.2 µM (inactive) | > 100 µM (inactive) | > 100 µM (inactive) | > 100 µM (inactive) | > 100 µM (inactive) | > 100 µM (inactive) | > 100 µM (inactive) | > 100 µM (inactive) | > 100 µM (inactive)
7 | COC(=O)C1(Cc2ccccc2C)Cc2ccc(C)cc2C1=O (stereo not given) | 45.6 µM (inactive) | 48 µM (inactive) | 56.8 µM (inactive) | 27.4 µM | 21.6 µM (inactive) | 16.7 µM (inactive) | 19.7 µM (inactive) | 20 µM (inactive) | 42.2 µM (inactive) | 30.8 µM (inactive) | 17.3 µM (inactive) | 16.7 µM (inactive) | 69.7 µM (inactive) | 34.4 µM (inactive) | 21.2 µM (inactive) | 16.9 µM (inactive) | 55.2 µM (inactive) | 21.6 µM (inactive) | 58.3 µM (inactive) | 13.9 µM (inactive)
8 | S=C1c2cc(Cl)ccc2N=C(NC2CCCC2)C2CSCN12 (stereo not given) | > 100 µM (inactive) | > 69.5 µM (inactive) | > 100 µM (inactive) | > 100 µM | 60.5 µM (inactive) | > 100 µM (inactive) | > 100 µM (inactive) | > 71.4 µM (inactive) | > 100 µM (inactive) | > 100 µM (inactive) | > 100 µM (inactive) | 98.6 µM (inactive) | > 100 µM (inactive) | > 75.9 µM (inactive) | > 76.6 µM (inactive) | > 100 µM (inactive) | > 100 µM (inactive) | > 100 µM (inactive) | 99.3 µM (inactive) | > 60.1 µM (inactive)
9 | C=CCN1C(=O)/C(=C/c2cccs2)N=C1SC/C=C/C | 36.8 µM (inactive) | 34.8 µM (inactive) | 63.1 µM (inactive) | 33.5 µM | 24.6 µM (inactive) | 34.6 µM (inactive) | 36.1 µM (inactive) | 26.4 µM (inactive) | 68.1 µM (inactive) | 38.3 µM (inactive) | 26.9 µM (inactive) | 39.1 µM (inactive) | 46.5 µM (inactive) | 40.4 µM (inactive) | 27.2 µM (inactive) | 19.1 µM (inactive) | 95.3 µM (inactive) | 26.3 µM (inactive) | 17.3 µM (inactive) | 18.5 µM (inactive)
10 | N=C(CC(=O)Nc1ccccn1)c1ccccc1 | > 100 µM (inactive) | > 100 µM (inactive) | > 100 µM (inactive) | > 100 µM | > 100 µM (inactive) | > 100 µM (inactive) | > 100 µM (inactive) | > 100 µM (inactive) | > 100 µM (inactive) | > 100 µM (inactive) | > 100 µM (inactive) | > 100 µM (inactive) | > 100 µM (inactive) | > 100 µM (inactive) | > 100 µM (inactive) | > 100 µM (inactive) | > 100 µM (inactive) | > 100 µM (inactive) | > 100 µM (inactive) | > 100 µM (inactive)
11 | COc1cccc2nc3c(C(=O)NCCN(C)C)cccc3cc12 | 1.16 µM (inactive) | 0.518 µM (active) | 5.74 µM (inactive) | 1.91 µM | 1.21 µM (inactive) | 1.21 µM (inactive) | 0.771 µM (active) | 1.12 µM (active) | 2.37 µM (inactive) | 0.195 µM (active) | 1.26 µM (inactive) | 2.71 µM (inactive) | 3.24 µM (inactive) | 2.12 µM (inactive) | 4.13 µM (inactive) | 1.41 µM (inactive) | 1.43 µM (inactive) | 1.16 µM (inactive) | 4.88 µM (inactive) | 0.42 µM (active)
12 | COC(=O)C1=CON2C3CC4CC(C3)CC(C4)C12C (stereo not given) | > 100 µM (inactive) | > 100 µM (inactive) | > 100 µM (inactive) | > 100 µM | > 100 µM (inactive) | > 100 µM (inactive) | > 100 µM (inactive) | > 100 µM (inactive) | > 100 µM (inactive) | > 100 µM (inactive) | > 100 µM (inactive) | > 100 µM (inactive) | > 100 µM (inactive) | > 100 µM (inactive) | > 100 µM (inactive) | > 100 µM (inactive) | > 100 µM (inactive) | > 100 µM (inactive) | > 100 µM (inactive) | > 100 µM (inactive)
13 | C=C(CN1CC2C[C@](C(=O)OC)(c3cc4ccccc4[nH]3)C1C(OC)C2OC)S(=O)(=O)c1ccccc1 (stereo not given in full) | 2.4 µM (inactive) | 2.24 µM (inactive) | 4 µM (inactive) | 3.08 µM | 0.729 µM (active) | 2.72 µM (inactive) | 1.85 µM (inactive) | 3.81 µM (inactive) | 3.35 µM (inactive) | 3.07 µM (inactive) | 1.7 µM (inactive) | 4.8 µM (inactive) | 4.43 µM (inactive) | 4.65 µM (inactive) | 4.17 µM (inactive) | 4.44 µM (inactive) | 3.49 µM (inactive) | 3.27 µM (inactive) | 2.74 µM (inactive) | 2.7 µM (inactive)
14 | C=C1C(=O)O[C@@H]2C[C@@H](C)[C@@H]3[C@@H](OC4OC(COC(C)=O)C(O)C(O)C4O)CC(=O)[C@@]3(C)C[C@H]12 (stereo not given in full) | 0.396 µM (active) | 0.238 µM (active) | 8.38 µM (inactive) | 0.218 µM | 0.902 µM (active) | 1.22 µM (inactive) | 0.63 µM (active) | 0.728 µM (active) | 4.36 µM (inactive) | 14.3 µM (inactive) | 0.127 µM (active) | 0.855 µM (active) | 9.77 µM (inactive) | 17.3 µM (inactive) | 7.5 µM (inactive) | 1.74 µM (inactive) | 19.1 µM (inactive) | 1.54 µM (inactive) | 7.31 µM (inactive) | 1.6 µM (inactive)
